Measured values taken from ChEMBL document CHEMBL1201862, “PubChem BioAssay data set” (2004).
The source made the active and inactive calls.

Key:
[1] = target: T1, Sphingosine 1-phosphate receptor 4 (Homo sapiens, UniProt O95977); experiment: Late-stage fluorescence dose response cell-based assay to identify agonists of the Sphingosine 1-Phosphate Receptor 4 (S1P4): purchased compounds EC50. [Related pubchem assays (depositor defined):AID1509, AID1523, AID1563, AID1686, AID1701, AID1801]; assay type: functional
T1 sequence (O95977 whole entry): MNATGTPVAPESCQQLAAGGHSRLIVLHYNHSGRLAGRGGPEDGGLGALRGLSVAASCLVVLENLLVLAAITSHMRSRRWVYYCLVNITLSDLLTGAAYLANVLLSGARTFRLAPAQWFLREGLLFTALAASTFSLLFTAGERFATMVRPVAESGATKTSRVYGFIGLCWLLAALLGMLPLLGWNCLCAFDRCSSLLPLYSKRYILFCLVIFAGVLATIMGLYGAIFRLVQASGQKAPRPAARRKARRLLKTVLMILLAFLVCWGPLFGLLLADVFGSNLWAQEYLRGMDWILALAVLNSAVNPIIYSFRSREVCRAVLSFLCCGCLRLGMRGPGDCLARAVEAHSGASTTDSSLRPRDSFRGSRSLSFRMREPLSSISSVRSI

Troponin, cardiac muscle = Troponin, cardiac muscle (Homo sapiens, UniProt P19429+P45379+P63316); experiment: Fluorescence-based biochemical high throughput dose response assay for activators of the calcium sensitivity of cardiac Regulated Thin Filaments (RTF). [Related pubchem assays (depositor defined):AID493008, AID493018, AID504382, AID504383]; assay type: protein-complex assay
Cannabinoid receptor 2 [2] = target: T2, Cannabinoid receptor 2 (Homo sapiens, UniProt P34972); experiment: SAR analysis of antagonists of the Cannabinoid Receptor 2 using an Image-Based Assay - Set 2. [Related pubchem assays (depositor defined):AID1961, AID1965]; assay type: functional
[3] = target: G-protein coupled receptor 55 (Homo sapiens, UniProt Q9Y2T6); experiment: SAR analysis of selective Agonists of GPR55 using an Image-Based Assay - Set 2. [Related pubchem assays (depositor defined):AID1961, AID1965]; assay type: functional
Cannabinoid receptor 2 [4] = target: T2, Cannabinoid receptor 2; experiment: SAR analysis of agonists of the Cannabinoid Receptor 2 using an Image-Based Assay - Set 2. [Related pubchem assays (depositor defined):AID1961, AID1965]; assay type: functional
[5] = target: T3, G-protein coupled receptor 35 (Homo sapiens, UniProt Q9HC97); experiment: SAR analysis of Agonists of the GPR35 Receptor using an Image-Based Assay - Set 3. [Related pubchem assays (depositor defined):AID1961, AID1965]; assay type: functional
Cannabinoid receptor 1 [6] = target: T4, Cannabinoid receptor 1 (Homo sapiens, UniProt P21554); experiment: SAR analysis of antagonists of the Cannabinoid Receptor 1 using an Image-Based Assay - Set 3. [Related pubchem assays (depositor defined):AID1961, AID1965]; assay type: functional
Cannabinoid receptor 1 [7] = target: T4, Cannabinoid receptor 1; experiment: SAR analysis of agonists of the Cannabinoid Receptor 1 using an Image-Based Assay - Set 3. [Related pubchem assays (depositor defined):AID1961, AID1965]; assay type: functional
[8] = target: T3, G-protein coupled receptor 35; experiment: SAR analysis of Antagonists of the GPR35 Receptor using an Image-Based Assay - Set 4. [Related pubchem assays (depositor defined):[…]]; assay type: functional
Major prion protein = Major prion protein (Homo sapiens, UniProt P04156); assay type: functional, cell-based
T-cell = experiment: loss of vesicle association with mouse CD8+ T cells – mouse 2C CD8+ T cells, flow cytometry, dose response (AID 485284); assay type: functional
[9] = target: T3, G-protein coupled receptor 35; experiment: inhibition of zaprinast-stimulated GPR35 beta-arrestin translocation – imaging, U2OS, beta-arrestin-GFP, zaprinast agonist, primary screen (AID 2058); assay type: functional;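 further: antagonist potency meaning inhibition of agonist-induced arrestin redistribution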
[10] = target: E3 ubiquitin-protein ligase Mdm2/Protein Mdm4 (Homo sapiens, UniProt O15151+Q00987); experiment: disruption of Mdm2/MdmX protein binding – luminescence detection, dose response (AID 504593); assay type: functional
[11] = target: T5, Microphthalmia-associated transcription factor (Homo sapiens, UniProt O75030); experiment: reducers of TRPM1 reporter luminescence, concentration series – cell-based, SK-MEL-5, cherry-picked, set 3, MITF inhibitor project, dose response (AID 493073); assay type: functional;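 further: SK-MEL-5 melanoma cells with luciferase driven by the MITF target TRPM1 promoter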
T5 sequence (O75030 whole entry): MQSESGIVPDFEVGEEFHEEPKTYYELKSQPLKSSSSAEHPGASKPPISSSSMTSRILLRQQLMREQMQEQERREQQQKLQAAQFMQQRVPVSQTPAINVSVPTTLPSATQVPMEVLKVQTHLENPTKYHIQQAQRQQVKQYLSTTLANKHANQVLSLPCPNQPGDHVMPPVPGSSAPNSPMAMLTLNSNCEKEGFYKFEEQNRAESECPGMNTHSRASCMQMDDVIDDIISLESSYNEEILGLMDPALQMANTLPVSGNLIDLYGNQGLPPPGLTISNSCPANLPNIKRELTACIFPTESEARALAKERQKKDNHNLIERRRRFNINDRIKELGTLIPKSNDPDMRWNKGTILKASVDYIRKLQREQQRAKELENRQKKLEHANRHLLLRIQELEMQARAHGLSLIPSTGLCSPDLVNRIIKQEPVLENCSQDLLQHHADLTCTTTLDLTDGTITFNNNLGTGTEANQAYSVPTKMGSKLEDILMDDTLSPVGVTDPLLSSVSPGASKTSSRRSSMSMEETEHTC

A-375 = experiment: proliferation inhibition in MITF-low A375 cells – cell-based, cherry-pick samples, set 2, counter-screen for MITF modulator project, dose response (AID 540335); assay type: functional; conditions: Homo sapiens
Prothrombin = Prothrombin (Homo sapiens, UniProt P00734); experiment: Thrombin 1536 HTS Dose Response Confirmation. [Related pubchem assays: 1046 (Thrombin 1536 HTS; hits were confirmed in this assay)]; assay type: functional
Coagulation factor XII = Coagulation factor XII (Homo sapiens, UniProt P00748); assay type: functional;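 further: activated factor XIIa alpha cleaving a fluorogenic AMC peptide substrate; inhibitor potency from loss of enzyme activity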
Mu-type opioid receptor = Mu-type opioid receptor (Homo sapiens, UniProt P35372); experiment: SAR Analysis of Antagonists of the MOR Receptor using an Image-Based Assay - Set 3. [Related pubchem assays (depositor defined):AID1777, AID1785, AID1786, AID1966, AID2133, AID2136, AID2284, AID2285, AID2420]; assay type: functional
[12] = target: Delta-type opioid receptor (Homo sapiens, UniProt P41143); experiment: SAR Analysis of Antagonists of the DOR Receptor using an Image-Based Assay - Set 3. [Related pubchem assays (depositor defined):AID1777, AID1785]; assay type: functional;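 further: U2OS cells expressing DOR1 and beta-arrestin GFP stimulated with 100 nM SNC80; imaging of GFP-tagged beta-arrestin moving into spots after receptor activation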
[13] = target: T6, Kappa-type opioid receptor (Homo sapiens, UniProt P41145); experiment: SAR analysis of small molecule antagonists of the kappa opioid receptor via a luminescent beta-arrestin assay - Set 3. [Related pubchem assays (depositor defined):AID1777, AID1778, AID1785, AID1786, AID1966, AID2133, AID2136, AID2285, AID2495]; assay type: functional
[14] = target: T6, Kappa-type opioid receptor; experiment: SAR analysis of Antagonists of the Kappa Opioid Receptor (KOR) using an Image-Based Assay - Set 3. [Related pubchem assays (depositor defined):AID1777, AID1785]; assay type: functional
Genome polyprotein = Genome polyprotein (Hepatitis C virus, UniProt Q2Q167); experiment: disruption of hepatitis C core self-association – biochemical, TR-FRET, dose response (AID 2159); parameters: species or system Hepacivirus hominis;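 further: blocks dimerization of HCV core protein measured by TR-FRET between tagged core106 pairs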
SUMO-activating enzyme [15] = target: T7, SUMO-activating enzyme (Homo sapiens, UniProt Q9UBT2); experiment: blockers of UBC9-mediated SUMO conjugation – biochemical, AlphaScreen, SUMOylation inhibitor project, confirmation (AID 2018); assay type: functional
[16] = target: T8, Voltage-gated N-type calcium channel alpha-1B subunit/Amyloid beta A4 precursor protein-binding family A member 1 (Homo sapiens, UniProt Q00975+Q02410); assay type: protein assay
SUMO-activating enzyme [17] = target: T7, SUMO-activating enzyme; experiment: blockers of SAE1/SAE2–UBC9 SUMO transfer – biochemical, HTRF, uHTS, primary screen (AID 2006); assay type: protein-complex assay
[18] = target: T8, Voltage-gated N-type calcium channel alpha-1B subunit/Amyloid beta A4 precursor protein-binding family A member 1; assay type: protein assay; remark: listed apart in the source
Paired box protein Pax-8 = Paired box protein Pax-8 (Homo sapiens, UniProt Q06710); experiment: PAX8 transcriptional activity inhibition in RMG-I – RMG-I cells, luciferase, cherry-pick, dose response (AID 687027); assay type: functional, cell-based;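 further: luciferase reporter driven by Pax8 target thyroperoxidase promoter measured by SteadyGlo luminescence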
[19] = target: Alkaline phosphatase, placental type (Homo sapiens, UniProt P05187); experiment: human placental alkaline phosphatase inhibition – biochemical, luminescence, confirmation (AID 1512); assay type: functional
[20] = target: T9, Alkaline phosphatase, tissue-nonspecific isozyme (Homo sapiens, UniProt P05186); experiment: potency against alkaline phosphatase TNAP – biochemical, luminescent, dose response, SAR follow-up (AID 1056)
T9 sequence (P05186 whole entry): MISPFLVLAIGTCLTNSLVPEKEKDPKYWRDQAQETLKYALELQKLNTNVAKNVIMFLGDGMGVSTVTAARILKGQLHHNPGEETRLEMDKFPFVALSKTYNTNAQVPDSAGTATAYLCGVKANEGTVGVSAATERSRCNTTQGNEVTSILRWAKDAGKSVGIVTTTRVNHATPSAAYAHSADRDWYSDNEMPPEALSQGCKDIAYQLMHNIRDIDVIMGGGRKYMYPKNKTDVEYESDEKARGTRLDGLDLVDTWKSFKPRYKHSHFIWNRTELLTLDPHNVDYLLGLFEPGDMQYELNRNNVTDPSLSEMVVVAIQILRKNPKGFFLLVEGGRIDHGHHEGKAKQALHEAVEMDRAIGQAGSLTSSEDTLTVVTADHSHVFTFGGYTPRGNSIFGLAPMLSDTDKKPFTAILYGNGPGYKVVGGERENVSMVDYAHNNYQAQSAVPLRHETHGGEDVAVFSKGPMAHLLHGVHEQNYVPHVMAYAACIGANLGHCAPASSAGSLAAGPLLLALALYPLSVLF

## Cc1nn(Cc2ccccc2)c(Cl)c1C(=O)OC(C)C(=O)NCc1cccs1 (stereo not given)
[1]
  EC50: > 50 µM (inactive)

## CCOC(=O)N1CCN(C(S)=Nc2ccccc2C)CC1
Troponin, cardiac muscle
  EC50: > 71.4 µM (inactive)

## O=C(Nc1cc(S(=O)(=O)N2CCOCC2)ccc1N1CCCC1)c1cc2c(s1)CCCC2
Cannabinoid receptor 2 [2]
  IC50: > 32 µM (inactive)
[3]
  EC50: 1.57 µM (active)
Cannabinoid receptor 2 [4]
  EC50: > 32 µM (inactive)
[5]
  EC50: > 32 µM (inactive)
Cannabinoid receptor 1 [6]
  IC50: > 32 µM (inactive)
Cannabinoid receptor 1 [7]
  EC50: > 32 µM (inactive)
[8]
  IC50: > 32 µM (inactive)
Major prion protein
  IC50: 5.47 µM (active)
cells
  IC50: > 138 µM (inactive)

## COc1ccc(C2=CC(=O)C[C@H](c3ccc4c(c3)OCO4)C2)cn1
T-cell
  EC50: 19.9 µM (active)

## CCN(CC)S(=O)(=O)c1ccc(NC(=O)c2cccnc2Cl)c(NC(=O)c2cccnc2Cl)c1
[9]
  IC50: 8.8 µM (active)
[10]
  IC50: 4.18 µM (active)
[11]
  AC50: 7.02 µM (active)
A-375
  AC50: 23.2 µM (active)

## COCCNC(=S)NN=C1CCCCCC1
Prothrombin
  IC50: > 50 µM (not active)
Coagulation factor XII
  IC50: > 50 µM (inactive)

## O=C(Cn1c(=O)c2cccn2c2cccnc21)NCCCN1CCCCC1
Mu-type opioid receptor
  IC50: > 32 µM (inactive)
[12]
  IC50: > 32 µM (inactive)
[13]
  IC50: > 20 µM (inactive)
[14]
  IC50: > 32 µM (inactive)

## COc1ccc(-c2nc3c(c(SCC(=O)Nc4cccc(O)c4)n2)Cc2c(CO)cnc(C)c2O3)cc1
Genome polyprotein
  IC50: > 49.8 µM (not active)
SUMO-activating enzyme [15]
  IC50: 9.01 µM (active)
[16]
  IC50: 28.1 µM (active)
SUMO-activating enzyme [17]
  IC50: 32.8 µM (active)
[18]
  IC50: > 50 µM (inactive)
Paired box protein Pax-8
  AC50: 67.6 µM (active)

## Cc1ccc(-n2nnnc2SCC(=O)c2ccc(O)c(O)c2)cc1
[19]
  IC50: 1.58 µM (active)
[20]
  IC50: 8.58 µM (active)
